We go through two compounds from publication PMC5066209, “Multiple cellobiohydrolases and cellobiose phosphorylases cooperate in the ruminal bacterium Ruminococcus albus 8 to degrade cellooligosaccharides” (Scientific Reports, 2016).

Assay [1] deals with T1, Ra3055 TM2 (Hominimerdicola alba, UniProt E9SHH5).
T1 construct: gene CUS_6909; truncation without C-terminal CBM37 (CBM4_9 - Ig-like - GH9); pET-46, E. coli
Description: cellobiose release by HPAEC-PAD, Michaelis-Menten fit. In kind it is biochemical. The note with it: 0.01-30 mM cellotetraose, 10 min; pH and temperature of kinetics not stated. The text has this:
cellobiose release by HPAEC-PAD, Michaelis-Menten fit on Ra3055 TM2

For a further assay, the target named is T2, Ra3055 TM4 (Hominimerdicola alba, UniProt E9SHH5).
T2 construct: gene CUS_6909; GH9 catalytic domain only; pET-46, E. coli
T2 sequence (E9SHH5 entry or part of it): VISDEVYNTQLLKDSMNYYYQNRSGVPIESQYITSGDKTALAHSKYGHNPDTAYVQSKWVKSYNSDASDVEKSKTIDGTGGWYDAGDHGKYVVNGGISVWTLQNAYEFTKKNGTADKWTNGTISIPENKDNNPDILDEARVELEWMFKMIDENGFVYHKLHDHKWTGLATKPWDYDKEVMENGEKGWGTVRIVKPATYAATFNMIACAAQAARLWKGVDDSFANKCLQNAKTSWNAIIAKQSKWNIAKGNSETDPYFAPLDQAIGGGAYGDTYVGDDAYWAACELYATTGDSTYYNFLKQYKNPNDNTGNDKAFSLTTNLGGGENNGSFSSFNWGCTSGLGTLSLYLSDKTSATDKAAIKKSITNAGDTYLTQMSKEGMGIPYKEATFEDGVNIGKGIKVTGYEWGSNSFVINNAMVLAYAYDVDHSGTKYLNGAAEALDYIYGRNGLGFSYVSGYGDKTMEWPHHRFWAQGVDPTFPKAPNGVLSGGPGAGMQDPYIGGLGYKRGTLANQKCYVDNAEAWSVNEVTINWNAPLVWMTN
Described as above. In kind it is biochemical. As to conditions: 0.01-30 mM cellotetraose, 10 min; pH and temperature of kinetics not stated. The text has this: cellobiose release by HPAEC-PAD, Michaelis-Menten fit on Ra3055 TM4

The target in assay [2] is T3, Ra3055 TM1 (Hominimerdicola alba, UniProt E9SHH5).
T3 construct: gene CUS_6909; truncation without N-terminal CBM4_9 (Ig-like - GH9 - CBM37); pET-46, E. coli
T3 sequence (E9SHH5 entry or part of it): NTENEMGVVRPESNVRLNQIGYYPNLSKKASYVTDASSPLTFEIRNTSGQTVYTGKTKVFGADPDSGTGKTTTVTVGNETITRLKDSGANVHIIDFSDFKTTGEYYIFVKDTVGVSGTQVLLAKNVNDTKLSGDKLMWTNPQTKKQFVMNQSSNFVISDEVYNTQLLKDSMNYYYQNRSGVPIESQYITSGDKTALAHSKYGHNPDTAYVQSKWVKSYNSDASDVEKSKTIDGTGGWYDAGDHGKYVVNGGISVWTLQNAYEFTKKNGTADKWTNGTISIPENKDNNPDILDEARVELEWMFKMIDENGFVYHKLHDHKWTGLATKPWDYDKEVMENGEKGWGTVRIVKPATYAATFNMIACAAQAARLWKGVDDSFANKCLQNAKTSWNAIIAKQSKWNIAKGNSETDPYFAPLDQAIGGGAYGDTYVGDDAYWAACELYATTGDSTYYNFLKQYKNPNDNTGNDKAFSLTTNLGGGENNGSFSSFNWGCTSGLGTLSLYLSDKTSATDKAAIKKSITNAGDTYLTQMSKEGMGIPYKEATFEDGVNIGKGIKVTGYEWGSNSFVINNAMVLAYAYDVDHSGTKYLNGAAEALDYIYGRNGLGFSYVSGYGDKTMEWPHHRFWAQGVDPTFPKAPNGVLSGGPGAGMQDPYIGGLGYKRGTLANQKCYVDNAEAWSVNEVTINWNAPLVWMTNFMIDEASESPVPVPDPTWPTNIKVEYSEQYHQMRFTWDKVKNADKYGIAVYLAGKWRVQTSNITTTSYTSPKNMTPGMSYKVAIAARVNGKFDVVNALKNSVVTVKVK
Described as above. The note with it: 0.01-30 mM cellotetraose, 10 min; pH and temperature of kinetics not stated. Format: biochemical. The source says: cellobiose release by HPAEC-PAD, Michaelis-Menten fit on Ra3055 TM1

Assay [3] addresses T4, Ra3055 TM3 (Hominimerdicola alba, UniProt E9SHH5).
T4 construct: gene CUS_6909; truncation to Ig-like - GH9 (no CBM4_9, no CBM37); pET-46, E. coli
Described as above. Format: biochemical. As to conditions: 0.01-30 mM cellotetraose, 10 min; pH and temperature of kinetics not stated. The text has this:
cellobiose release by HPAEC-PAD, Michaelis-Menten fit on Ra3055 TM3

The target in assay [4] is T4, Ra3055 TM3. The assay is described as follows: isothermal titration calorimetry. As to conditions: 50 mM sodium phosphate, 150 mM NaCl, pH 7.5; single-site fit. In kind it is binding.
Assay [5] addresses T3, Ra3055 TM1. The assay is described as follows: isothermal titration calorimetry. Format: binding. As to conditions: 50 mM sodium phosphate, 150 mM NaCl, pH 7.5; single-site fit.
The next assay addresses T5, Ra3055 (WT) (Hominimerdicola alba, UniProt E9SHH5).
T5 construct: gene CUS_6909; full-length multimodular CBM4_9 - Ig-like - GH9 - CBM37
The assay is described as follows: isothermal titration calorimetry. As to conditions: 50 mM sodium phosphate, 150 mM NaCl, pH 7.5; single-site fit. Format: binding. (Isothermal titration calorimetry measures the heat released or taken up as one component is titrated into another.)

Assay [6] has as its target T1, Ra3055 TM2. Description: isothermal titration calorimetry. As to conditions: 50 mM sodium phosphate, 150 mM NaCl, pH 7.5; single-site fit. Format: binding.

T1 sequence (E9SHH5 entry or part of it): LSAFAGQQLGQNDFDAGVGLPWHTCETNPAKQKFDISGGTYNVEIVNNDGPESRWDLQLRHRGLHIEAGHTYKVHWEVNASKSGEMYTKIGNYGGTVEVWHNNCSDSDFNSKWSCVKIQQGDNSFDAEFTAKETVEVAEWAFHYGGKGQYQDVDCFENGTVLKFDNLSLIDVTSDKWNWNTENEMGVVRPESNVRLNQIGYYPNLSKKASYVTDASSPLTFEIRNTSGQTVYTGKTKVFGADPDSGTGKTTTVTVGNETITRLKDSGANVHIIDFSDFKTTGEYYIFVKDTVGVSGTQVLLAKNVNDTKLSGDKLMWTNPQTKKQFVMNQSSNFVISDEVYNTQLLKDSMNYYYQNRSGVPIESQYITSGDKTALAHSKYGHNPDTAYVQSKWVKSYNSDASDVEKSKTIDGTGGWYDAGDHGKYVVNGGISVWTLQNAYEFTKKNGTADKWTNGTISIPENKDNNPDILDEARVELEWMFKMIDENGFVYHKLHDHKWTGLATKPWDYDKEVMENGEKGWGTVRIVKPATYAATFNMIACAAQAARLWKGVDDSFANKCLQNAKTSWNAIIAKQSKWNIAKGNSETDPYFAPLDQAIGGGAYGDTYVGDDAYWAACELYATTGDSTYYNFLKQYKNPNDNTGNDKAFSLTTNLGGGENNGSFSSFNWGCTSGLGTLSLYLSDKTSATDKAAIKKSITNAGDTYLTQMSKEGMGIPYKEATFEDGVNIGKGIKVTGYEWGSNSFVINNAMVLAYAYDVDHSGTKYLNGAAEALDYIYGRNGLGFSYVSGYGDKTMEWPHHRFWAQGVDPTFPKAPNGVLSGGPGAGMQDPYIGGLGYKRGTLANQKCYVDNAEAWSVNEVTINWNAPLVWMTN
T4 sequence (E9SHH5 entry or part of it): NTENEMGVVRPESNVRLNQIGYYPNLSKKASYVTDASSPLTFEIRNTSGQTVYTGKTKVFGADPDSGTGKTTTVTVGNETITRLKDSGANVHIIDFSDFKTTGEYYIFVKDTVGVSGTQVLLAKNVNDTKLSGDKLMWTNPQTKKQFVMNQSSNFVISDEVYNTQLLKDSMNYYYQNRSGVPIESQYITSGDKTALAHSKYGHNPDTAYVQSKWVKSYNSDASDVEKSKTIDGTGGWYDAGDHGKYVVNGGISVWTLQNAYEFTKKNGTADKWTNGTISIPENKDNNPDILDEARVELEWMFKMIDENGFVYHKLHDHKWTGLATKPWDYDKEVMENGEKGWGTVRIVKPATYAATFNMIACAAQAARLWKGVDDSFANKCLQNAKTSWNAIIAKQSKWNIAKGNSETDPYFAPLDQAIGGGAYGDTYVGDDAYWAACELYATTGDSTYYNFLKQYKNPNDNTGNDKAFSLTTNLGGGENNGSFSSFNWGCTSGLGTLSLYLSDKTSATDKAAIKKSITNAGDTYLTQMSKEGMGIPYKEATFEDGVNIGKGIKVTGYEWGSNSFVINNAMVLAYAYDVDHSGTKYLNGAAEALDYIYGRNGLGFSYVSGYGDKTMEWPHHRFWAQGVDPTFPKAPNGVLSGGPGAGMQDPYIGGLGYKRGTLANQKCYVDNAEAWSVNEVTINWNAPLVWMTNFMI
T5 sequence (E9SHH5 entry or part of it): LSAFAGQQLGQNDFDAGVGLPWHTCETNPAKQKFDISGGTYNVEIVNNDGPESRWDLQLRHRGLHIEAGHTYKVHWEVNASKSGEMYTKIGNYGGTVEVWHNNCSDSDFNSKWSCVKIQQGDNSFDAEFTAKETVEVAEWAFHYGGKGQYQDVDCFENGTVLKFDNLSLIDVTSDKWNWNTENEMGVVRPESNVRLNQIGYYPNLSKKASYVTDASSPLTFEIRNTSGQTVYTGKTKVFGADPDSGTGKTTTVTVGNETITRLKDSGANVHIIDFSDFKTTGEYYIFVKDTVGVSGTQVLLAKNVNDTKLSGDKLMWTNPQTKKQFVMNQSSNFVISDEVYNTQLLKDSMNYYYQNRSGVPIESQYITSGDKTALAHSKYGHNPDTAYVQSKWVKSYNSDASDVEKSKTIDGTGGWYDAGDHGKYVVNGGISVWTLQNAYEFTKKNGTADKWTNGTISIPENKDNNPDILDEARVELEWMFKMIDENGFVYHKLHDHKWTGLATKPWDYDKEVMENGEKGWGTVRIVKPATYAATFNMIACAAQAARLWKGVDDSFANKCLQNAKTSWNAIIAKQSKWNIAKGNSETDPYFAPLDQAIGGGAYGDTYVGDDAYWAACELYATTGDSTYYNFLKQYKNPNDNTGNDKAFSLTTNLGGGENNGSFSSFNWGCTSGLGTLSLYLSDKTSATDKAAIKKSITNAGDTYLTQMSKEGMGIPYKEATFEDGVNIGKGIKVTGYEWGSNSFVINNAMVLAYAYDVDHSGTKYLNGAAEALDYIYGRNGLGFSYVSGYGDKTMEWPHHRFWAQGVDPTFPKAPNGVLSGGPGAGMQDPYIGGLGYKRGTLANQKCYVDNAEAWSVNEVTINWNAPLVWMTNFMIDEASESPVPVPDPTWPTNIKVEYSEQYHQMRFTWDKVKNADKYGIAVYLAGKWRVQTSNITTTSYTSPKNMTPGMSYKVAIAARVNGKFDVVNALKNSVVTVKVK

Take `OC[C@H]1O[C@@H](O[C@H]2[C@H](O)[C@@H](O)[C@H](O[C@H]3[C@H](O)[C@@H](O)[C@H](O[C@H]4[C@H](O)[C@@H](O)C(O)O[C@@H]4CO)O[C@@H]3CO)O[C@@H]2CO)[C@H](O)[C@@H](O)[C@@H]1O` (some centres unmarked) [G4, cellotetraose]: the Km at Ra3055 TM2 [1] stood at 5.6 ± 0.9 mM; at Ra3055 TM4, 7.9 ± 3.6 mM; on Ra3055 TM1 [2], 4.5 ± 0.3 mM; at Ra3055 TM3 [3] it was 2.9 ± 0.1 mM.

Regarding `OC[C@H]1O[C@@H](O[C@H]2[C@H](O)[C@@H](O)[C@H](O[C@H]3[C@H](O)[C@@H](O)[C@H](O[C@H]4[C@H](O)[C@@H](O)[C@H](O[C@H]5[C@H](O)[C@@H](O)C(O)O[C@@H]5CO)O[C@@H]4CO)O[C@@H]3CO)O[C@@H]2CO)[C@H](O)[C@@H](O)[C@@H]1O` (some centres unmarked) [G5, cellopentaose], the Ka on Ra3055 TM3 [4] was determined as 5.06E5±4.41E4; on Ra3055 TM1 [5], 6.38E5±1.57E5; on Ra3055 (WT), 2.94E4±7.38E3; at Ra3055 TM2 [6], 3.49E4±4.59E3.

Usually Km stands for the concentration of substrate that gives half-maximal velocity.
